The source of these data is ChEMBL document CHEMBL1146643, “Potential hypotensive agents: synthesis and hypotensive activity of oxime ethers derived from 1-naphthoxepines and related compounds” (2004).

Holding throughout (type): functional
What all share (conditions): route intravenous

In assay [1] the test system is Felis catus. Put plainly: Percent of maximum effect in anaesthetized cat at a dose of 5 mg/kg intravenously.
In assay [2] the test system is Felis catus. Put plainly: Fall of blood pressure in anaesthetized cat at a dose of 5 mg/kg intravenously.
The test system of assay [3] is Felis catus. Put plainly: Percent of maximum effect in anaesthetized cat at a dose of 1 mg/kg intravenously.
Assay [4] relates to Felis catus. Description: Fall of blood pressure in anaesthetized cat at a dose of 1 mg/kg intravenously.

On to `CCCNCC(O)CO/N=C1\CCCOc2ccc3ccccc3c21` (stereo not drawn), for which the Max effect in the assay with Felis catus [1] and with Felis catus [3] was 17% each time. The “Decrease in blood pressure” value is 16 mmHg in the assay on Felis catus [2] and 18 mmHg in the assay on Felis catus [4].

For the molecule `CC(C)(C)NCC(O)CO/N=C1\CCCOc2c1ccc1ccccc21` (stereo not drawn), the Max effect with Felis catus [1] amounted to 55%; in the assay with Felis catus [3], 40%. The “Decrease in blood pressure” value in the assay on Felis catus [2] came out at 80 mmHg; in the assay on Felis catus [4] it was 60 mmHg.

`CC(C)NCC(O)CO/N=C1\CCCOc2c1ccc1ccccc21` (stereo not drawn): the Max effect with Felis catus [1] turned out to be 88%; with Felis catus [3], 14%. For the same molecule, the results for the “Decrease in blood pressure” value with Felis catus [2] and in the assay on Felis catus [4] were 110 mmHg and 20 mmHg, respectively.

As for `CC(C)(C)NCC(O)CO/N=C1\CCCOc2ccc3ccccc3c21` (stereo not drawn), the Max effect in the assay with Felis catus [1] came to 41%; in the assay on Felis catus [3], 21%. In addition, the “Decrease in blood pressure” value in the assay on Felis catus [2] is given as 50 mmHg; with Felis catus [4], 18 mmHg.

As for `CCCNCC(O)CO/N=C1\CCCOc2c1ccc1ccccc21` (stereo not drawn), the Max effect in the assay on Felis catus [1] came to 50%; with Felis catus [3] it was 21%. In addition, the “Decrease in blood pressure” value was found to be 60 mmHg in the assay on Felis catus [2] and 20 mmHg with Felis catus [4].

For `CC(C)NCC(O)COc1cccc2ccccc12` (stereo not drawn) [PROPRANOLOL], the figures for the Max effect in the assay with Felis catus [1] and with Felis catus [3] were 41% and 35%, respectively. In addition, the “Decrease in blood pressure” value is on record as 50 mmHg with Felis catus [2] and 46 mmHg with Felis catus [4].

For `CC(C)NCC(O)CO/N=C1\CCCOc2ccc3ccccc3c21` (stereo not drawn), the Max effect worked out at 70% with Felis catus [1] and 7% with Felis catus [3]. The entries for the “Decrease in blood pressure” value with Felis catus [2] and in the assay with Felis catus [4] were 80 mmHg and 10 mmHg, respectively.
